Literature values, collected in patent US6503396B2 (priority 2000, dated 2003).

What was measured:
ovarian cancer = ovarian cancer patients who exhibited no response to conventional anti-cancer drugs
lung cancer = lung cancer patients who exhibited no response to conventional anti-cancer drugs
breast cancer = breast cancer patients who exhibited no response to conventional anti-cancer drugs

For `CC(=O)O[C@H]1C(=O)[C@@]2(C)[C@H]([C@H](OC(=O)c3ccccc3)[C@]3(O)C[C@H](OC(=O)[C@H](O)[C@@H](NC(=O)c4ccccc4)c4ccccc4)C(C)=C1C3(C)C)[C@]1(OC(C)=O)CO[C@@H]1C[C@@H]2O` [taxol], the “response rate to taxol” value (ovarian cancer) is listed as 30%, the “response rate to taxol” value (lung cancer) is listed as 20% and the “response rate to taxol” value (breast cancer) is listed as 50%.
